This note sets out measurements from ChEMBL document CHEMBL5576134, “Targeting Pancreatic Cancer with Novel Nicolaioidesin C Derivatives: Molecular Mechanism, In Vitro, and In Vivo Evaluations” (J Med Chem, 2024).

For data set [1], the system named is MIA PaCa-2. Briefly: Preferential cytotoxicity against human MIA PaCa-2 cells in nutrient-deprived medium measured after 24 hrs by WST-8 cell counting analysis. Type of data set: functional. For orientation: Tetrazolium dyes change colour on reduction, which living cells bring about.
Data set [2] concerns MIA PaCa-2. The experiment in a line: Preferential cytotoxicity against human MIA PaCa-2 cells in DMEM measured after 24 hrs by WST-8 cell counting analysis. Type of data set: functional, cell-based. The settings on record: MIA PaCa-2, 24 h.
Data set [3] in a line: Selectivity index, ratio of IC50 for preferential cytotoxicity against human MIA PaCa-2 cells in DMEM to PC50 for preferential cytotoxicity against human MIA PaCa-2 cells in nutrient-deprived medium. The class given is functional.
Data set [4] concerns PANC-1. Briefly: Preferential cytotoxicity against human PANC-1 cells in nutrient-deprived medium measured after 24 hrs by WST-8 cell counting analysis. Type of data set: functional.
Data set [5] has as its system PANC-1. Briefly: Preferential cytotoxicity against human PANC-1 cells in DMEM measured after 24 hrs by WST-8 cell counting analysis. The class given is functional, cell-based. The settings on record: PANC-1, 24 h.
A short description of data set [6]: Selectivity index, ratio of IC50 for preferential cytotoxicity against human PANC-1 cells in DMEM to PC50 for preferential cytotoxicity against human PANC-1 cells in nutrient-deprived medium. Type of data set: functional.
Data set [7] is described as follows: Toxicity in BALB/c/Nu/Nu mouse xenografted with human MIA PaCa-2 cells assessed as change in body weight at 60 mg/kg, ip administered 5 times a week for 4 weeks. Type of data set: organism-based. The note with it: in vivo, 672 h.
Data set [8] relates to MIA PaCa-2. The experiment in a line: Antitumor activity against human MIA PaCa-2 cells xenografted in BALB/c/Nu/Nu mouse assessed as tumor volume at 60 mg/kg, ip administered 5 times a week for 4 weeks and measured on day 32 (reference value: 1417 mm3). Type of data set: functional. The note with it: time 32 day. (In general: Xenograft models place foreign cells or tissue in a host animal.)

The test system of data set [9] is MIA PaCa-2. Briefly: Antitumor activity against human MIA PaCa-2 cells xenografted in BALB/c/Nu/Nu mouse assessed as reduction in final tumor weight at 60 mg/kg, ip administered 5 times a week for 4 weeks (reference value: […]). The class given is functional.
The test system of data set [10] is MIA PaCa-2. Briefly: Antitumor activity against human MIA PaCa-2 cells xenografted in BALB/c/Nu/Nu mouse assessed as reduction in number of blood vessels in skin at 60 mg/kg, ip administered 5 times a week for 4 weeks. The class given is functional, organism-based.

The structures appear in SMILES notation. Activity calls are given as the source filed them. The calls are words filed in the database; no cut-off is given here.

A word on the IC50: it is the concentration needed to halve the response being measured. High values mean weaker potency in that assay, low ones greater potency in that assay. Regarding `COc1cc(O)c(C(=O)[C@H]2CC=C(CCC=C(C)C)C[C@@H]2c2c(F)cccc2F)c(O)c1` (relative stereo), the figures for the PC50 with MIA PaCa-2 [1] and in the data set on PANC-1 [4] were 1.54 µM and 1.49 µM, respectively. The IC50 in the data set on MIA PaCa-2 [2] was determined as 26.3 µM; with PANC-1 [5] it was 19.4 µM. The “Selectivity Index” value is recorded as 17 in [3] and 13 in [6].

Turning to `COc1cc(O)c(C(=O)[C@H]2CC=C(CCC=C(C)C)C[C@@H]2c2cc(F)ccc2F)c(O)c1` (relative stereo), the PC50 in the data set on MIA PaCa-2 [1] was found to be 0.81 µM; in the data set with PANC-1 [4], 0.5 µM. Also, the IC50 with MIA PaCa-2 [2] came out at 26.6 µM; with PANC-1 [5] it was 17.1 µM. The “Selectivity Index” value in [3] was determined as 32.7; in data set [6], 34.4.

As to `COc1cc(O)c(C(=O)[C@H]2CC=C(CCC=C(C)C)C[C@@H]2c2ccc(F)c(F)c2)c(O)c1` (relative stereo), the PC50 turned out to be 0.69 µM in the data set with MIA PaCa-2 [1] and 0.54 µM with PANC-1 [4]. The IC50 came to 27.1 µM in the data set with MIA PaCa-2 [2] and 15.5 µM with PANC-1 [5]. Moreover, the figures for the “Selectivity Index” value in [3] and in [6] were 39.3 and 28.5, respectively.

`CC(C)=CCCC1=CC[C@H](C(=O)c2c(O)cccc2O)[C@@H](c2c(F)cccc2F)C1` (single isomer, unassigned): the figures for the PC50 in the data set with MIA PaCa-2 [1] and in the data set with PANC-1 [4] were 1.52 µM and 1.34 µM, respectively. Besides, the figures for the IC50 with MIA PaCa-2 [2] and in the data set on PANC-1 [5] were 28.7 µM and 21.6 µM, respectively. The “Selectivity Index” value is reported as 18.9 in data set [3] and 16.1 in [6].

As to `Nc1ccn([C@@H]2O[C@H](CO)[C@@H](O)C2(F)F)c(=O)n1` [GEMCITABINE], the Activity result is “Non-Toxic” in data set [7], 632 mm3 in the data set on MIA PaCa-2 [8] and 227 mg in the data set on MIA PaCa-2 [9]. Also, in the data set on MIA PaCa-2 [10], the outcome was Active.
